Measurements published in patent publication US20060009425A1, “Oral formulations of paricalcitol” (priority 2004, published 2006).

Columns and labels:
[1] = tested on: biochemical bone activity markers; experiment: Phase 3 TIW study, biochemical bone activity markers (Table D); type: in vivo, human; settings: CKD Stage 3 and 4, TIW treated subjects (Table D)
Description: Serum bone-specific alkaline phosphate and serum osteocalcin are considered more sensitive bone markers to evaluate degree of bone remodeling than urinary bone marker. […] As shown in Examples 5-7 and Tables C (Example 5), Table D (Example 6) and Table E (Example 7), certain biochemical bone activity marker variables were analyzed in CKD Stage 3 and 4 subjects. These subjects received treatment with the oral formulations of the present invention or a placebo. The bone markers examined in these subjects were serum osteocalcin, serum bone-specific alkaline phosphatase, urinary pyridinoline, and deoxypyridinoline. If more than 1 biochemical bone activity marker measurement existed for a subject on a particular day, the higher measurement was considered to be that subject's biochemical bone activity marker measurement for that day. […] The Final Visit measurement was defined as the last biochemical bone activity marker measurement following the first dose of study drug.
The Week 11 Visit measurement was defined as the biochemical bone activity marker measurement on the day closest to the Week 11 scheduled visit, for which the possible measurements to choose from were those collected within 64 and 77 days following the first dose of study drug.
Changes from baseline to Week 11 Visit and to Final Visit in biochemical bone activity markers were compared between oral paricalcitol and placebo using an ANOVA with treatment as the factor on the combined Phase 3 all treated subject population (Table F). Also, the changes from baseline to Week 11 Visit and to Final Visit were compared between oral paricalcitol and placebo using an ANCOVA with baseline as the second factor on the combined Phase 3 all treated subject population (Table G).
During the Treatment Phase, subjects were to self-administer study drug 3 times weekly, on Monday, Wednesday and Friday, for a total of 24 weeks. The initial dose was 2 or 4 mcg (depending on baseline iPTH levels). Procedures to be performed during the Treatment Phase included vital signs, chemistry and hematology, urinary pyridinoline, urinary deoxypyridinoline, serum bone-specific alkaline phosphatase, serum osteocalcin, urinalysis, spot urine for calcium/creatinine ratio, and recording of adverse events and concurrent medications. Serum iPTH, calcium, phosphorus, and albumin were measured every 2 weeks. Dose adjustments were to be made according to these chemistry results for iPTH, calcium, and phosphorus. Doses may have been increased in 2 mcg increments every 4 weeks.

[2] = Combined Phase 3 studies, safety (Examples 10-12); type: in vivo, human
Description: As discussed previously, Vitamin D deficiency is common in early stage CKD and is a major factor in the development of 2° HPT. However, few nephrologists prescribe calcitriol due to concerns of its calcemic, phosphatemic and calciuric effects and potential adverse effect on kidney function. In this example, a study was conducted that evaluated the safety of paricalcitol capsule in CKD stage 3-4 subjects with 2° HPT in 3 double-blind, placebo-controlled multicenter studies. A total of 220 subjects with iPTH ≧150 pg/mL, serum Ca 8-10 mg/dL and P≦5.2 mg/dL were randomized 1:1 and treated with paricalcitol capsule (N=107) or placebo (N=113) three times per week or daily for 24 weeks. Initial doses were based on iPTH levels at baseline (iPTH <500 pg/mL: 2 mcg TIW or 1 mcg QD; iPTH ≧500 pg/mL: 4 mcg TIW or 2 mcg QD). Subsequent dose adjustments (TIW: 2 mcg, QD: 1 mcg) were based on biweekly Ca, P and iPTH results, dose increases occurred every 4 weeks.
In this example, three double-blind, placebo-controlled, multicenter studies were conducted to evaluate the safety and efficacy of paricalcitol capsule in CKD stage 3-4 subjects. Major inclusion included eGFR (MDRD formula) 15-60 mL/min/1.73 m^2, iPTH ≧150 pg/mL. A total of 220 subjects across the 3 studies were randomized and received paricalcitol capsule or placebo three times weekly (TIW, N=145) or daily (QD, N=75) for 24 weeks. Mean baseline eGFR was 23.90 mL/min/1.73 m^2 in the paricalcitol group and 23.44 mL/min/1.73 m^2 in the placebo group. The initial dose was 2 mcg (TIW) or 1 mcg (QD) for baseline iPTH ≦500 pg/mL and 4 mcg (TIW) or 2 mcg (QD) for baseline iPTH >500 pg/mL. Doses were titrated based on serum Ca, P and iPTH results that were measured every 2 weeks, dose increases occurred every 4 weeks.
In this example, paricalcitol capsules were evaluated in 3 double-blind, placebo-controlled multicenter studies in CKD stage 3-4 subjects with 2° HPT; 2 of these studies were conducted with TIW dosing and 1 was done with QD dosing. Subjects with eGFR (MDRD formula) 15-60 ml/min/1.73 m^2, iPTH ≧150 pg/mL, serum Ca 8.0-10.0 mg/dL and PO4≦5.2 mg/dL were randomized 1:1 and treated with paricalcitol capsule or placebo for 24 weeks. A total of 145 subjects used TIW regimen (paricalcitol: 72; placebo: 73) and 75 subjects (paricalcitol: 35; placebo: 40) used QD regimen. After the initial doses, doses were titrated based on serum Ca, P and iPTH results that were measured every 2 weeks; dose increases occurred once every 4 weeks and decreases every 2 weeks. Dosing administrations are shown below in Table 18.

[3] = tested on: serum and urine pharmacodynamic markers; experiment: Serum and urine pharmacodynamic markers, moderate to severe renal impairment (Example 4)
Description: Blood samples for paricalcitol assay were collected by venipuncture into 7 mL evacuated EDTA-containing collection tubes within 5 minutes prior to dosing (0 hour) and at 0.5, 1, 2, 3, 4, 6, 8, 12, 24, 36, and 48 hours after dosing on Study Days 1 and 8. Sufficient blood was collected to provide approximately 2.5 mL plasma from each sample. In addition, urine was collected for 48 hours following Study Day 1 dosing. Serum and urine pharmacodynamic markers, were measured at selected time points in the study. Also, a 24 hr urine amount of urine pharmacodynamic markers were measured following paricalcitol dose on Study Days 1 and 8.
Pharmacodynamic: Serum pharmacodynamic markers [serum calcium, calcium-phosphorus product (Ca×P), serum phosphorus, serum bone specific alkaline phosphatase (AP), serum osteocalcin, serum C-terminal telopeptide of collagen (CTx), serum tartarate resistant acid phosphatase-type 5b (TRAP-5b), intact (iPTH) and whole PTH] were measured from samples collected immediately prior to dosing on Study Days 1, 3, 5, and 8. One additional sample was collected 48 hours following the Study Day 8 dose (on the morning of Study Day 10). Urine pharmacodynamic markers [calcium, creatinine and deoxy-pyridinoline (DPD)] were measured from samples collected immediately prior to dosing on Study Days 1 and 8, and during the intervals 0 to 4, 4 to 8, 8 to 12, and 12 to 24 hours after dosing on Study Days 1 and 8. In addition, these markers were measured using the first morning void sample on Study Days 3, 5, and 10.
Pharmacodynamic: Two-sample t-tests were performed to compare baseline pharmacodynamic marker values between the two renal impairment groups. For improving the normality of the distribution of the baseline values, natural logarithm transformations were made to all the pharmacodynamic markers except for the urine calcium and urine creatinine. The relationship between the % change from Study Day 1 to Study Day 10 and the Study Day 1 paricalcitol AUC0-∞ was investigated using linear regression. The Study Day 1 AUC0-∞ and the corresponding baseline value were independent variables. A one-sample t-test was performed for each group on the change from Study Day 1 to Study Day 8 in 24-hour amount of urine calcium and creatinine.

[4] = 3 Phase 3 studies, TIW or daily for 24 weeks, CKD stage 3-4
[5] = N = 106, 3 Phase 3 studies combined
[6] = subjects who completed 24 weeks of treatment
[7] = moderate and severe renal impairment groups, supra-pharmacologic fixed doses, 1-week study
[8] = moderate renal impairment, Study Day 1
[9] = moderate renal impairment, Study Day 8
[10] = severe renal impairment, Study Day 1
[11] = severe renal impairment, Study Day 8

With C[C@H](/C=C/[C@H](C)C(C)(C)O)[C@H]1CC[C@H]2/C(=C/C=C3C[C@@H](O)C[C@H](O)C3)CCC[C@]12C [Paricalcitol, 19-nor-1α,3β,25-trihydroxy-9,10-secoergosta-5(Z); 7(E),22(E)-triene] the “Serum Bone-Specific Alkaline Phosphatase, Change from Baseline (SE) to Final” value [1] was −8.179 (1.2010) mcg/L, the “Serum Bone-Specific Alkaline Phosphatase, Change from Baseline (SE) to Week 11” value [1] was −5.078 (0.9420) mcg/L and the “Serum Osteocalcin, Change from Baseline (SE) to Final” value [1] was −18.92 (3.973) ng/mL. For the same compound, the “Serum Osteocalcin, Change from Baseline (SE) to Week 11” value [1] was −6.96 (3.259) ng/mL, the “Urinary Deoxypyridinoline, Change from Baseline (SE) to Final” value [1] was −0.0182 (0.0062) nmol/mg Creat and the “Urinary Deoxypyridinoline, Change from Baseline (SE) to Week 11” value [1] was −0.0144 (0.00813) nmol/mg Creat. The “Urinary Pyridinoline, Change from Baseline (SE) to Final” value [1] was −7.11 (2.828) nmol/mmol Creat, the “Urinary Pyridinoline, Change from Baseline (SE) to Week 11” value [1] was −4.87 (3.725) nmol/mmol Creat and the “subjects who experienced hypercalcemia (2 consecutive Ca >10.5 mg/dL)” value ([2]; 2/106, 3 Phase 3 studies combined) was 2%. For the same compound, the “adverse event incidence: pharyngitis” value ([2]; 3 Phase 3 studies combined) was 10%, the “treatment-emergent adverse events reporting” value ([2]; 3 Phase 3 studies combined) was 82% and the “Urine Calcium, Mean Change from Baseline (SE)” value [2, 4] was 2.4 (3.04) mg/24 hours. For the same compound, the “Urine Calcium, Mean Final Value” [2, 4] was 42.0 mg/24 hours, the “Urine Phosphorous, Mean Change from Baseline (SE)” value [2, 4] was −2.1 (39.72) mg/24 hours and the “Urine Phosphorous, Mean Final Value” [2, 4] was 670.4 mg/24 hours. For the same compound, the safety and tolerability ([2]; CKD stage 3-4 subjects, 3 Phase 3 studies) was “safe and well tolerated”, the “Elevated Ca × P (2 consecutive Ca × P > 55 mg^2/dL^2), subjects n (%)” value (from here on “Elevated Ca × P … (%)”) [2, 5] was 13 (12%) and the “Hypercalcemia (2 consecutive Ca > 10.5 mg/dL), subjects n (%)” value (from here on “Hypercalcemia … (%)”) [2, 5] was 2 (2%). For the same compound, the “Hyperphosphatemia (2 consecutive P > 5.5 mg/dL), subjects n (%)” value [2, 5] was 11 (10%), the “Elevated Ca × P … (%)” value ([2]; QD regimen) was 5 (14%) and the “Hypercalcemia … (%)” value ([2]; QD regimen) was 0 (%). For the same compound, the “Hyperphosphatemia (2 consecutive P > 5.5 mg/dL), subjects n (%)” value ([2]; QD regimen) was 5 (14%), the “Elevated Ca × P … (%)” value ([2]; TIW regimen) was 8 (12%) and the “Hypercalcemia … (%)” value ([2]; TIW regimen) was 2 (3%). For the same compound, the “Hyperphosphatemia (2 consecutive P > 5.5 mg/dL), subjects n (%)” value ([2]; TIW regimen) was 6 (9%), the “eGFR (MDRD formula), Mean Change from Baseline” value [2, 6] was −2.5 (0.526) mL/min/1.73 m^2 and the “eGFR (MDRD formula), Mean Final Value” [2, 6] was 21.4 mL/min/1.73 m^2. The “eGFR (MDRD formula), Mean Percent Change from Baseline (SE)” value [2, 6] was −10.4 (2.268), the PTH levels [3, 7] was “significant decrease” and the “calcium, phosphorus, Ca×P levels” value [3, 7] was “increases”. For the same compound, the “Ca/Creatinine, urine over 24 hours after dose” value [3, 8] was 0.045 ± 0.051, the “Calcium, total amount excreted in urine over 24 hours after dose” value (“Calcium … over 24 hours after dose” below) [3, 8] was 49.39 ± 56.85 mg and the “Creatinine, total amount excreted in urine over 24 hours after dose” value (shortened to “Creatinine … in urine over 24 hours after dose”) [3, 8] was 1326.7 ± 566.1 mg. The “DPD, total amount excreted in urine over 24 hours after dose” value (from here on “DPD … over 24 hours after dose”) [3, 8] was 52.03 ± 18.96 nmol, the “Ca/Creatinine, urine over 24 hours after dose” value [3, 9] was 0.074 ± 0.078 and the “Calcium … over 24 hours after dose” value [3, 9] was 79.24 ± 63.27 mg. The “Creatinine … in urine over 24 hours after dose” value [3, 9] was 1324.4 ± 402.0 mg, the “DPD … over 24 hours after dose” value [3, 9] was 58.60 ± 16.45 nmol and the “24-hour urinary excretion of calcium” value ([3]; repeated dosing) was “does not affect”. The “Ca/Creatinine, urine over 24 hours after dose” value [3, 10] was 0.028 ± 0.019, the “Calcium … over 24 hours after dose” value [3, 10] was 29.18 ± 20.97 mg and the “Creatinine … in urine over 24 hours after dose” value [3, 10] was 1088.3 ± 278.6 mg. For the same compound, the “DPD … over 24 hours after dose” value [3, 10] was 48.34 ± 21.04 nmol, the “Calcium … over 24 hours after dose” value [3, 11] was 50.92 ± 41.18 mg and the “DPD … over 24 hours after dose” value [3, 11] was 47.74 ± 20.47 nmol.
